In one assay the test system is immunoproteasome. Put plainly: In vitro cleavage of HER-2/neu 19-mer by purified immunoproteasome. It is filed as biochemical. Particulars: from HER-2/neu 19-mer (364-382). Here is the method: (§1) The following was performed to determine if E75 is processed from HER-2/neu or HER-2/neu fragments by multi-subunit enzymes referred to as the proteasome and immunoproteasome, which are required for loading of polypeptide onto MHC class I molecules. […] (SEQ ID NO:3), was synthesized. […] The 19-mer was then cleaved using purified 20S proteasome and immunoproteasome.

Another assay has as its system 20S proteasome. Briefly: In vitro cleavage of HER-2/neu 19-mer by purified 20S proteasome. It is filed as biochemical. Particulars: from HER-2/neu 19-mer (364-382). Here is the method: as §1
For assay [1], the system named is 20S proteasome and immunoproteasome. Put plainly: Processing of longer HER-2/neu polypeptides (19-mer, 23-mer) treated with the proteasomes. It is filed as biochemical. Here is the method: as §1
Assay [2] concerns breast cancer cell lines that express varying levels of HER-2/neu. It is filed as cell-based, human.
In a further assay the test system is breast cancer cell lines. Put plainly: Cytotoxic T cell assay: lysis of breast cancer cells by polypeptide-generated CD8+ T cells. It is filed as cell-based, human. To be noted: compared to CD8+ T cells generated using p369-377. Here is the method: Another in vitro assay was performed to measure lysis of the breast cancer cells by the T cells.
In assay [3] the test system is target cells pulsed with polypeptide. Briefly: IFN-γ ELIspot of polypeptide-generated CD8+ T cell lines against polypeptide-pulsed target cells. It is filed as cell-based, human.
The next assay deals with tumor cells. Briefly: Tumor cell lysis by generated T cells in presence of neutralizing HLA-A2 or HLA-ABC antibodies. It is filed as cell-based, human.
Assay [4] relates to HLA-A2 / HLA-ABC restricted T cell reactivity. Briefly: IFN-γ release of generated T cells in presence of neutralizing HLA-A2 or HLA-ABC antibodies. It is filed as cell-based, human. Particulars: versus control isotype matched antibody.

With AFLPESFD (homo sapiens), the “Peptide generated by immunoproteasome” value in the assay on immunoproteasome is listed as “+”. In addition, the “Peptide generated by proteasome” value in the assay on 20S proteasome is reported as “+”.

For the sequence “FAGCKKIFGSLAFLPESFD (homo sapiens) [19-mer polypeptide, substrate of the cleavage assay]”, the “Processing by purified 20S proteasome and immunoproteasome” value in assay [1] (19-mer FAGCKKIFGSLAFLPESFD as substrate) is “consistently found to be processed into several other shorter polypeptides”.

Consider LAFLPESFD (homo sapiens), for which the “Peptide generated by immunoproteasome” value in the assay with immunoproteasome is on record as “+”. Moreover, the “Peptide generated by proteasome” value with 20S proteasome is reported as “+”.

With GSLAFLPESFD (homo sapiens), the “Peptide generated by immunoproteasome” value with immunoproteasome is listed as “+”. The “Peptide generated by proteasome” value in the assay with 20S proteasome is reported as “+”.

For “GSLAFLPESF (homo sapiens) [HER-2/neu amino acids 372-381]”, the “Peptide generated by immunoproteasome” value in the assay on immunoproteasome is reported as “+”. Also, in the assay with 20S proteasome, the “Peptide generated by proteasome” value is “+”.

Take FAGCKKIFGS (homo sapiens): in the assay with immunoproteasome, the “Peptide generated by immunoproteasome” value is “+”. Moreover, in the assay with 20S proteasome, the “Peptide generated by proteasome” value was “+”.

“FAGCKKIFGSL (homo sapiens) [HER-2/neu amino acids 364-374]”: in the assay on immunoproteasome, the “Peptide generated by immunoproteasome” value is on record as “+”. Besides, the “Peptide generated by proteasome” value in the assay on 20S proteasome is given as “+”.

On to “FGSLAFLPES (homo sapiens) [HER-2/neu amino acids 371-380]”, for which the “Peptide generated by immunoproteasome” value with immunoproteasome was “+”. For the same sequence, in the assay on 20S proteasome, the “Peptide generated by proteasome” value is given as “+”.

As for “FGSLAFLPESF (homo sapiens) [HER-2/neu amino acids 371-381]”, in the assay on immunoproteasome, the “Peptide generated by immunoproteasome” value was “+”. In addition, in the assay with 20S proteasome, the “Peptide generated by proteasome” value is “+”.

Regarding SLAFLPESF (homo sapiens), the “Peptide generated by immunoproteasome” value in the assay with immunoproteasome was “+”. Also, the “Peptide generated by proteasome” value in the assay with 20S proteasome is reported as “+”.

As to SLAFLPESFD (homo sapiens), the “Recognition of breast cancer cells by CD8+ T cells generated with the polypeptide” value in assay [2] is “able to recognize the breast cancer cells at much higher levels”. Besides, in the assay with immunoproteasome, the “Peptide generated by immunoproteasome” value is “+”. In the assay with breast cancer cell lines, the “Lysis of breast cancer cell lines by CD8+ T cells generated with the polypeptide” value is “recognized and lysed all tested breast cancer cell lines at much higher levels”. In the assay on 20S proteasome, the “Peptide generated by proteasome” value is listed as “+”. In assay [3], the “Recognition of polypeptide-pulsed target cells by T cells generated with the polypeptide” value is reported as “recognized target cells pulsed with either the p373-382 polypeptide or the p369-377 polypeptide”. Besides, the “Release from 23-mer treated with the proteasomes” value in assay [1] (23-mer containing p373-382 as substrate) was “released from the 23-mer”. Moreover, the “Lysis of tumor cells by generated T cells with neutralizing HLA-A2 or HLA-ABC antibody” value in the assay on tumor cells is “blocked lysis of tumor cells”. Also, in assay [4], the “Reactivity (IFN-γ release) of generated T cells with neutralizing HLA-A2 or HLA-ABC antibody” value is reported as “markedly suppressed”.

Source of the values: patent publication US10117919B2, “Methods and materials for generating CD8+ T cells having the ability to recognize cancer cells expressing a HER2/neu polypeptide” (Mayo Foundation for Medical Education and Research, priority 2012, dated 2018).
